{
  "source": "patent US6440996B1",
  "about": "“Monomeric and dimeric heterocycles, and therapeutic uses thereof” (priority 1998, dated 2002)",
  "key": {"dopamine transporter [1]": {"molecular_target": "T1, dopamine transporter (Rattus norvegicus, UniProt P23977)", "T1 construct": "from tissue; P2 synaptosomes for uptake", "T1 sequence (P23977 whole entry)": "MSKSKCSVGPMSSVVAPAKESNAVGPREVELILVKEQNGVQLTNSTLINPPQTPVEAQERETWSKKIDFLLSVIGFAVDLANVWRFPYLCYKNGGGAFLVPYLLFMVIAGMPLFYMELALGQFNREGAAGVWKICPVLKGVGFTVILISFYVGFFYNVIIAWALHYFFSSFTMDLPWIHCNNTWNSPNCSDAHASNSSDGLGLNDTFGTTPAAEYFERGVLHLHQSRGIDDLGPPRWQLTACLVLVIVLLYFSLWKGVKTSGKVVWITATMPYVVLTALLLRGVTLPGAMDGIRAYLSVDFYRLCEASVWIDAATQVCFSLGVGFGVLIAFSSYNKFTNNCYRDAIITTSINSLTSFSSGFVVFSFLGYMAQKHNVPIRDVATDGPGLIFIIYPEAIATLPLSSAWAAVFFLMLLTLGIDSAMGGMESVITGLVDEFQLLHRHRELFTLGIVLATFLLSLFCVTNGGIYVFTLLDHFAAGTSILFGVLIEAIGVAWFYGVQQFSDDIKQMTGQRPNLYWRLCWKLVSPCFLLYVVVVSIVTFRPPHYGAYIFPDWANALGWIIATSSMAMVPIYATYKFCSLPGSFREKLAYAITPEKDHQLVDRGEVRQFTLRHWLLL", "assay": "[3H]WIN 35,428 binding to rat striatal membranes / dopamine transporter binding (DAT)", "protocol": "(§1) Determination of inhibitory binding potencies of analogues at dopamine, serotonin, and norepinephrine transporters are carried out using standard receptor binding assays which are known in the art.\nA. Dopamine Transporter Binding (DAT)"}, "dopamine transporter [2]": {"molecular_target": "T1, dopamine transporter", "assay": "Inhibition of high-affinity [3H]dopamine uptake into rat striatal nerve endings (synaptosomes)", "format": "biochemical", "protocol": "A. [^3H]Dopamine Uptake Studies\nThe effect of candidate compounds in antagonizing dopamine high-affinity uptake was determined using a method previously employed. For [^3H]DA uptake, dissected rat striata were homogenized with a Teflon-glass pestle in ice-cold 0.32 M sucrose and centrifuged for 10 min at 1000×g. The supernatant was centrifuged at 17,500×g for 20 min. This P2 synaptosomal pellet was resuspended in 30 volumes of ice-cold modified KRH buffer. An aliquot of the synaptosomal suspension was preincubated with the buffer and drug for 30 min at 37° C., and uptake initiated by the addition of [^3H]dopamine (5 nM, final concentration). After 5 min, uptake was terminated by adding 5 mL of cold buffer containing glucosamine as a substitute for NaCl and then finally by rapid vacuum filtration over GF-C glass fiber filters, followed by washing with two 5 mL volumes of ice-cold, sodium-free buffer. Radioactivity retained on the filters was determined by liquid scintillation spectrometry. […] It is identical to that calculated by subtracting the mean of identical tubes incubated at 0° C."}, "[3]": {"molecular_target": "norepinephrine transporter (Rattus norvegicus, UniProt Q9WTR4)", "sequence (Q9WTR4 1-597)": "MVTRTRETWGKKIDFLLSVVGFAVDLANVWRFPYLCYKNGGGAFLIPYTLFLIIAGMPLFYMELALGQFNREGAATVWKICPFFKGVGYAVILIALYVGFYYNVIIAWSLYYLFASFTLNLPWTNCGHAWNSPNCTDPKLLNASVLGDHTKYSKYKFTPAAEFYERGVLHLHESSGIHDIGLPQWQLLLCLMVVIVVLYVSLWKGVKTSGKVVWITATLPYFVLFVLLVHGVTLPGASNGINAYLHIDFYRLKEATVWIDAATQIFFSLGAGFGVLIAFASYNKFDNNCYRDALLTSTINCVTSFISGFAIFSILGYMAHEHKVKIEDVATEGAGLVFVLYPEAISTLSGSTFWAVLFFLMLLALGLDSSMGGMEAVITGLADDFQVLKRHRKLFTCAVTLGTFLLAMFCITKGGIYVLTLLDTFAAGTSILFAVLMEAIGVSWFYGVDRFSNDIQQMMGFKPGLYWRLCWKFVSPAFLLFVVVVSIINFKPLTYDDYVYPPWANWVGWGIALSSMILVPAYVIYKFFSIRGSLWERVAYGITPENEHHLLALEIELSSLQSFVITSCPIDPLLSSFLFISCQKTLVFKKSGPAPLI", "assay": "Norepinephrine transporter binding (NET)", "protocol": "as §1\nC. Norepinephrine Transporter Binding (NET)\nJ. Med Chem., 36, 2886-2890."}, "serotonin transporter": {"molecular_target": "serotonin transporter (Rattus norvegicus, UniProt P31652)", "sequence (P31652 whole entry)": "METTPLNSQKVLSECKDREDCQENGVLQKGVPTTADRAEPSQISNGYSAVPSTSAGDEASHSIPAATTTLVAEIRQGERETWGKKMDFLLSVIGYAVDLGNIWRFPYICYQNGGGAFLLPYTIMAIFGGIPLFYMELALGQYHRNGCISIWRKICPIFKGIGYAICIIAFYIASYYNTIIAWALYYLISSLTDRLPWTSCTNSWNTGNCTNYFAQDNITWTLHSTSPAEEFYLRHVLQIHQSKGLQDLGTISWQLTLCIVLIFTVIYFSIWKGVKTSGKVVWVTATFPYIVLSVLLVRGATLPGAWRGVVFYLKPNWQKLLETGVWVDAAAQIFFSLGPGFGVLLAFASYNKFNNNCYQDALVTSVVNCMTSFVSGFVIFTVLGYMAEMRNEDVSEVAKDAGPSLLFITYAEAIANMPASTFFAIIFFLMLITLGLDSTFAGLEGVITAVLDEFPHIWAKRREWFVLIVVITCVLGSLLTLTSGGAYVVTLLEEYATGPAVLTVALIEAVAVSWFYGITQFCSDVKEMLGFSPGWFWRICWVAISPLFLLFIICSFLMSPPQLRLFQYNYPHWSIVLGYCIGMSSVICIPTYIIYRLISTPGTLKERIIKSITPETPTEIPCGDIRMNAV", "assay": "Serotonin transporter binding (5-HTT)", "protocol": "as §1\nB. Serotonin Transporter Binding (5-HTT)\nMol. Pharmacol., 39, 339."}, "[4]": {"conditions": "IC50 (nM) [3H]WIN 35,428 binding, rat striatal membranes, Table 1"}, "[5]": {"conditions": "rat striatal synaptosomes, Table 1, read-out: IC50 (nM) [3H]dopamine uptake"}, "[6]": {"conditions": "Table 2, read-out: DAT IC50 (nm)"}, "[7]": {"conditions": "Table 2, read-out: NET IC50 (nm)"}, "[8]": {"conditions": "Table 2, unit inferred, read-out: Dopamine Uptake"}, "[9]": {"conditions": "Table 2, read-out: 5-HTT IC50 (nm)"}},
  "note": "Counter-ions that a name gives are not always drawn. Like-named read-outs stand apart in the source and are kept apart here.",
  "data": [
    {"smiles": "COC(=O)C1CN(C)CCC1c1ccc(Cl)cc1", "note": "(racemic) [1 · HCl]", "values": [
      {"measurement": "IC50", "setting": "dopamine transporter [1]; DAT IC50 (nm), Table 2", "value": 53, "unit": "nM"}
    ]},
    {"smiles": "COC(=O)[C@@H]1CN(C)CC[C@@H]1c1ccc(Cl)cc1", "note": "(racemic) [Compound 1, (±)-cis-Methyl 4-(4-Chlorophenyl)-1-methylpiperidine-3-carboxylate]", "values": [
      {"measurement": "IC50", "setting": "dopamine transporter [1]; DAT IC50 (nm), Table 2", "value": 22, "unit": "nM"},
      {"measurement": "IC50", "setting": "dopamine transporter [1]; [4]", "value": "53.7 ± 1.9", "unit": "nM"},
      {"measurement": "IC50", "setting": "dopamine transporter [2]; [5]", "value": "37.8 ± 7.9", "unit": "nM"},
      {"measurement": "melting point", "value": "98 to 99", "unit": "°C"}
    ]},
    {"smiles": "COC(=O)C1CN(C)CCC1c1cccc2ccccc12", "note": "(racemic) [Compound 73, (±)-Methyl 4β-(1-Naphthyl)-1-methylpiperidine-3β-carboxylate]", "values": [
      {"measurement": "IC50", "setting": "dopamine transporter [1]; [6]", "value": 173, "unit": "nM"},
      {"measurement": "IC50", "setting": "[3]; [7]", "value": 2700, "unit": "nM"},
      {"measurement": "IC50", "setting": "serotonin transporter; 5-HTT IC50 (nm), Table 2", "value": 1310, "unit": "nM"},
      {"measurement": "melting point", "value": "108 to 109", "unit": "°C"}
    ]},
    {"smiles": "COC(=O)C1CN(C)CCC1c1ccc2ccccc2c1", "note": "(racemic) [Compound 75, (±)-Methyl 4-(2-Naphthyl)-1-methylpiperidine-3-carboxylate]", "values": [
      {"measurement": "IC50", "setting": "dopamine transporter [1]; DAT IC50 (nm), Table 2", "value": 78, "unit": "nM"},
      {"measurement": "IC50", "setting": "[3]", "value": 607, "unit": "nM"},
      {"measurement": "IC50", "setting": "serotonin transporter; 5-HTT IC50 (nm), Table 2", "value": 366, "unit": "nM"}
    ]},
    {"smiles": "COC(=O)C1CN(C)CCC1c1ccc(Cl)cc1", "note": "(single isomer, unassigned; (+)) [Compound 4, (+)-Methyl 4β-(4-Chlorophenyl)-1-methylpiperidine-3β-carboxylate]", "values": [
      {"measurement": "IC50", "setting": "dopamine transporter [2]; [8]", "value": 5090, "unit": "nM"},
      {"measurement": "IC50", "setting": "dopamine transporter [2]; [5]", "value": "5090 ± 172", "unit": "nM"}
    ]},
    {"smiles": "CN1CCC(c2ccc(Cl)cc2)C(CO)C1", "note": "(single isomer, unassigned; (+)) [Compound 6, (+)-4β-(4-Chlorophenyl)-3β-(hydroxymethyl)-1-methylpiperidine]", "values": [
      {"measurement": "IC50", "setting": "dopamine transporter [1]; DAT IC50 (nm), Table 2", "value": 442, "unit": "nM"},
      {"measurement": "IC50", "setting": "dopamine transporter [1]; [4]", "value": "442 ± 32", "unit": "nM"}
    ]},
    {"smiles": "CC(=O)OCC1CN(C)CCC1c1ccc(Cl)cc1", "note": "(single isomer, unassigned; (+)) [Compound 8, (+)-3β-(Acetoxymethyl)-4β-(4-chlorophenyl)-1-methylpiperidine]", "values": [
      {"measurement": "IC50", "setting": "dopamine transporter [1]; DAT IC50 (nm), Table 2", "value": 928, "unit": "nM"},
      {"measurement": "IC50", "setting": "dopamine transporter [1]; [4]", "value": "928 ± 43", "unit": "nM"},
      {"measurement": "IC50", "setting": "dopamine transporter [2]; [8]", "value": 2030, "unit": "nM"},
      {"measurement": "IC50", "setting": "dopamine transporter [2]; [5]", "value": "2030 ± 82", "unit": "nM"}
    ]},
    {"smiles": "CN1CCC(c2ccc(Cl)cc2)C(CO)C1", "note": "(single isomer, unassigned; (+)) [Compound 13, (+)-4β-(4-Chlorophenyl)-3α-(hydroxymethyl)-1-methylpiperidine]", "values": [
      {"measurement": "IC50", "setting": "dopamine transporter [1]; DAT IC50 (nm), Table 2", "value": 240, "unit": "nM"},
      {"measurement": "IC50", "setting": "dopamine transporter [1]; [4]", "value": "240 ± 18", "unit": "nM"},
      {"measurement": "IC50", "setting": "dopamine transporter [2]; [8]", "value": 864, "unit": "nM"},
      {"measurement": "IC50", "setting": "dopamine transporter [2]; [5]", "value": "683 ± 47", "unit": "nM"}
    ]},
    {"smiles": "CC(=O)OCC1CN(C)CCC1c1ccc(Cl)cc1", "note": "(single isomer, unassigned; (+)) [Compound 14, (+)-3α-(Acetoxymethyl)-4β-(4-chlorophenyl)-1-methylpiperidine]", "values": [
      {"measurement": "IC50", "setting": "dopamine transporter [1]; DAT IC50 (nm), Table 2", "value": 461, "unit": "nM"},
      {"measurement": "IC50", "setting": "dopamine transporter [1]; [4]", "value": "461 ± 11", "unit": "nM"}
    ]},
    {"smiles": "CCCC1CN(C)CCC1c1ccc(Cl)cc1", "note": "(single isomer, unassigned; (+)) [Compound 15, (+) 4β-(4-Chlorophenyl)-1-methyl-3α-n-propylpiperidine]", "values": [
      {"measurement": "IC50", "setting": "dopamine transporter [1]; rat striatal membranes, Table 1, read-out: IC50 (nM) [3H]WIN 35,428 binding", "value": "17.2 ± 0.5", "unit": "nM"},
      {"measurement": "IC50", "setting": "dopamine transporter [2]; [8]", "value": 23, "unit": "nM"},
      {"measurement": "IC50", "setting": "dopamine transporter [2]; [5]", "value": "23.2 ± 2.2", "unit": "nM"},
      {"measurement": "IC50", "setting": "[3]; [7]", "value": 183, "unit": "nM"},
      {"measurement": "IC50", "setting": "serotonin transporter; [9]", "value": 155, "unit": "nM"}
    ]},
    {"smiles": "CN1CCC(c2ccc(Cl)cc2)C(CCCS)C1", "note": "(single isomer, unassigned; (+)) [Compound 55]", "values": [
      {"measurement": "IC50", "setting": "dopamine transporter [1]; [6]", "value": 28, "unit": "nM"}
    ]},
    {"smiles": "Cc1noc(C2CN(C)CCC2c2ccc(Cl)cc2)n1", "note": "(single isomer, unassigned; (+)) [Compound 56]", "values": [
      {"measurement": "IC50", "setting": "dopamine transporter [1]; [6]", "value": 172, "unit": "nM"},
      {"measurement": "IC50", "setting": "[3]; [7]", "value": 1130, "unit": "nM"},
      {"measurement": "IC50", "setting": "serotonin transporter; [9]", "value": "> 10000", "unit": "nM"}
    ]},
    {"smiles": "CN1CCC(c2ccc(Cl)cc2)C(c2nc(-c3ccccc3)no2)C1", "note": "(single isomer, unassigned; (+)) [Compound 58]", "values": [
      {"measurement": "IC50", "setting": "dopamine transporter [1]; DAT IC50 (nm), Table 2", "value": 289, "unit": "nM"},
      {"measurement": "IC50", "setting": "serotonin transporter", "value": 7400, "unit": "nM"}
    ]},
    {"smiles": "CN1CCC(c2ccc(Cl)cc2)C(C(=O)Oc2ccccc2)C1", "note": "(single isomer, unassigned; (+)) [Compound 59, (+)-Phenyl 4β-(4-Chlorophenyl)-1-methylpiperidine-3α-carboxylate]", "values": [
      {"measurement": "IC50", "setting": "dopamine transporter [1]; DAT IC50 (nm), Table 2", "value": 1460, "unit": "nM"},
      {"measurement": "IC50", "setting": "[3]", "value": 56500, "unit": "nM"},
      {"measurement": "IC50", "setting": "serotonin transporter; 5-HTT IC50 (nm), Table 2", "value": 25100, "unit": "nM"}
    ]},
    {"smiles": "C=Cc1ccc(C2CCN(C)CC2C(=O)OC)cc1", "note": "(single isomer, unassigned; (+)) [Compound 65, (+)-Methyl 4β-(4-Vinylphenyl)-1-methylpiperidine-3α-carboxylate]", "values": [
      {"measurement": "IC50", "setting": "serotonin transporter; 5-HTT IC50 (nm), Table 2", "value": 55700, "unit": "nM"}
    ]},
    {"smiles": "CCc1ccc(C2CCN(C)CC2C(=O)OC)cc1", "note": "(single isomer, unassigned; (+)) [Compound 67, (+)-Methyl 4β-(4-Ethylphenyl)-1-methylpiperidine-3α-carboxylate]", "values": [
      {"measurement": "IC50", "setting": "dopamine transporter [1]; [6]", "value": 7340, "unit": "nM"}
    ]}
  ]
}
